Measurements as given in ChEMBL document CHEMBL4665917, “Optimization of Versatile Oxindoles as Selective PI3Kδ Inhibitors” (ACS Med Chem Lett, 2020).
≈ marks a conversion by molar mass, not a printed value.

Tests used:
[1] = Half life in Beagle dog at 0.5 mg/kg, iv or 1 mg/kg, po; assay type: ADME, organism-based, Canis lupus familiaris; settings: in vivo
[2] = Volume of distribution in Wistar-Han rat at 0.5 mg/kg, iv or 1 mg/kg, po; assay type: ADME, organism-based; settings: in vivo
[3] = Clearance in Beagle dog at 0.5 mg/kg, iv or 1 mg/kg, po; assay type: ADME, organism-based, Canis lupus familiaris; settings: in vivo
cells = settings: Homo sapiens, HeLa
[4] = Solubility of the compound at pH 7; assay type: physicochemical; settings: buffer
[5] = Unbound volume of distribution in Wistar-Han rat at 0.5 mg/kg, iv or 1 mg/kg, po; assay type: ADME, organism-based; settings: in vivo
[6] = Intrinsic clearance in Wistar-Han rat at 0.5 mg/kg, iv or 1 mg/kg, po; assay type: ADME, organism-based; settings: in vivo
[7] = Apparent permeability in pig LLC-PK1 cells; assay type: ADME, cell-based, Sus scrofa
[8] = Intrinsic clearance in Beagle dog at 0.5 mg/kg, iv or 1 mg/kg, po; assay type: ADME, organism-based, Canis lupus familiaris; settings: in vivo
[9] = Volume of distribution in Beagle dog at 0.5 mg/kg, iv or 1 mg/kg, po; assay type: ADME, organism-based, Canis lupus familiaris; settings: in vivo
[10] = Unbound volume of distribution in Beagle dog at 0.5 mg/kg, iv or 1 mg/kg, po; assay type: ADME, organism-based, Canis lupus familiaris; settings: in vivo
[11] = Half life in Wistar-Han rat at 0.5 mg/kg, iv or 1 mg/kg, po; assay type: ADME, organism-based; settings: in vivo
[12] = Clearance in Wistar-Han rat at 0.5 mg/kg, iv or 1 mg/kg, po; assay type: ADME, organism-based; settings: in vivo
[13] = Oral bioavailability in Wistar-Han rat at 1 mg/kg; assay type: ADME, organism-based; settings: in vivo
[14] = Oral bioavailability in Beagle dog at 1 mg/kg; assay type: ADME, organism-based, Canis lupus familiaris; settings: in vivo
Cytochrome P450 2C8 = biological target: T1, Cytochrome P450 2C8 (Homo sapiens, UniProt P10632); experiment: Inhibition of CYP2C8 (unknown origin); assay type: ADME
T1 sequence (P10632 whole entry): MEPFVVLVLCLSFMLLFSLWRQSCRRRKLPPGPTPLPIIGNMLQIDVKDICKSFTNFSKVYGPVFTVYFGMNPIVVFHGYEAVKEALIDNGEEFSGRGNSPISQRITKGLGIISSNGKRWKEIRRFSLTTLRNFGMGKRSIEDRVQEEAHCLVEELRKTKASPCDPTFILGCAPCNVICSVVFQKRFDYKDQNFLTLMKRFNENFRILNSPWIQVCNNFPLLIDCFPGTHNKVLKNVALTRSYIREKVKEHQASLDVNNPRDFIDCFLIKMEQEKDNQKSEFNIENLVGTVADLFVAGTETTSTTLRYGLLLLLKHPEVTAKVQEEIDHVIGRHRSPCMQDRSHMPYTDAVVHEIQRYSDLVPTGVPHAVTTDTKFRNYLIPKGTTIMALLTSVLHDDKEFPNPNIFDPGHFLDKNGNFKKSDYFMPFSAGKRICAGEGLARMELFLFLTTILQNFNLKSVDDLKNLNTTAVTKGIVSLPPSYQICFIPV

[15] = biological target: Voltage-gated inwardly rectifying potassium channel KCNH2 (Homo sapiens, UniProt Q12809); experiment: Inhibition of human ERG
Cytochrome P450 2D6 = Cytochrome P450 2D6 (Homo sapiens, UniProt P10635); experiment: Inhibition of CYP2D6 (unknown origin); assay type: ADME
Cytochrome P450 2C9 = Cytochrome P450 2C9 (Homo sapiens, UniProt P11712); experiment: Inhibition of CYP2C9 (unknown origin); assay type: ADME
Cytochrome P450 3A4 = Cytochrome P450 3A4 (Homo sapiens, UniProt P08684); experiment: Inhibition of CYP3A4 (unknown origin); assay type: ADME
[16] = biological target: Voltage-dependent L-type calcium channel subunit alpha-1C (Homo sapiens, UniProt Q13936); experiment: Inhibition of Cav1.2 (unknown origin)
[17] = AUC in rat at 200 mg/kg; assay type: ADME, organism-based; parameters: dose 200 mg/kg; settings: in vivo
[18] = biological target: Sodium channel protein type 5 subunit alpha (Homo sapiens, UniProt Q14524); experiment: Inhibition of Nav1.5 (unknown origin)
Homo sapiens = species on record: Homo sapiens; experiment: Selectivity index, ratio of IC50 for Inhibition of N-terminal His6 tagged recombinant full-length human PI3Kalpha/human recombinant full length p85alpha expressed in baculovirus infected Sf21 cells to IC50 for Inhibition of N-terminal His6 tagged recombinant full-length human PI3Kdelta/human recombinant full length p85alpha expressed in baculovirus infected Sf21 cells
[19] = AUC in rat at 100 mg/kg; assay type: ADME, organism-based; parameters: dose 100 mg/kg; settings: in vivo

Sequence of Sodium channel protein type 5 subunit alpha (Q14524 whole entry): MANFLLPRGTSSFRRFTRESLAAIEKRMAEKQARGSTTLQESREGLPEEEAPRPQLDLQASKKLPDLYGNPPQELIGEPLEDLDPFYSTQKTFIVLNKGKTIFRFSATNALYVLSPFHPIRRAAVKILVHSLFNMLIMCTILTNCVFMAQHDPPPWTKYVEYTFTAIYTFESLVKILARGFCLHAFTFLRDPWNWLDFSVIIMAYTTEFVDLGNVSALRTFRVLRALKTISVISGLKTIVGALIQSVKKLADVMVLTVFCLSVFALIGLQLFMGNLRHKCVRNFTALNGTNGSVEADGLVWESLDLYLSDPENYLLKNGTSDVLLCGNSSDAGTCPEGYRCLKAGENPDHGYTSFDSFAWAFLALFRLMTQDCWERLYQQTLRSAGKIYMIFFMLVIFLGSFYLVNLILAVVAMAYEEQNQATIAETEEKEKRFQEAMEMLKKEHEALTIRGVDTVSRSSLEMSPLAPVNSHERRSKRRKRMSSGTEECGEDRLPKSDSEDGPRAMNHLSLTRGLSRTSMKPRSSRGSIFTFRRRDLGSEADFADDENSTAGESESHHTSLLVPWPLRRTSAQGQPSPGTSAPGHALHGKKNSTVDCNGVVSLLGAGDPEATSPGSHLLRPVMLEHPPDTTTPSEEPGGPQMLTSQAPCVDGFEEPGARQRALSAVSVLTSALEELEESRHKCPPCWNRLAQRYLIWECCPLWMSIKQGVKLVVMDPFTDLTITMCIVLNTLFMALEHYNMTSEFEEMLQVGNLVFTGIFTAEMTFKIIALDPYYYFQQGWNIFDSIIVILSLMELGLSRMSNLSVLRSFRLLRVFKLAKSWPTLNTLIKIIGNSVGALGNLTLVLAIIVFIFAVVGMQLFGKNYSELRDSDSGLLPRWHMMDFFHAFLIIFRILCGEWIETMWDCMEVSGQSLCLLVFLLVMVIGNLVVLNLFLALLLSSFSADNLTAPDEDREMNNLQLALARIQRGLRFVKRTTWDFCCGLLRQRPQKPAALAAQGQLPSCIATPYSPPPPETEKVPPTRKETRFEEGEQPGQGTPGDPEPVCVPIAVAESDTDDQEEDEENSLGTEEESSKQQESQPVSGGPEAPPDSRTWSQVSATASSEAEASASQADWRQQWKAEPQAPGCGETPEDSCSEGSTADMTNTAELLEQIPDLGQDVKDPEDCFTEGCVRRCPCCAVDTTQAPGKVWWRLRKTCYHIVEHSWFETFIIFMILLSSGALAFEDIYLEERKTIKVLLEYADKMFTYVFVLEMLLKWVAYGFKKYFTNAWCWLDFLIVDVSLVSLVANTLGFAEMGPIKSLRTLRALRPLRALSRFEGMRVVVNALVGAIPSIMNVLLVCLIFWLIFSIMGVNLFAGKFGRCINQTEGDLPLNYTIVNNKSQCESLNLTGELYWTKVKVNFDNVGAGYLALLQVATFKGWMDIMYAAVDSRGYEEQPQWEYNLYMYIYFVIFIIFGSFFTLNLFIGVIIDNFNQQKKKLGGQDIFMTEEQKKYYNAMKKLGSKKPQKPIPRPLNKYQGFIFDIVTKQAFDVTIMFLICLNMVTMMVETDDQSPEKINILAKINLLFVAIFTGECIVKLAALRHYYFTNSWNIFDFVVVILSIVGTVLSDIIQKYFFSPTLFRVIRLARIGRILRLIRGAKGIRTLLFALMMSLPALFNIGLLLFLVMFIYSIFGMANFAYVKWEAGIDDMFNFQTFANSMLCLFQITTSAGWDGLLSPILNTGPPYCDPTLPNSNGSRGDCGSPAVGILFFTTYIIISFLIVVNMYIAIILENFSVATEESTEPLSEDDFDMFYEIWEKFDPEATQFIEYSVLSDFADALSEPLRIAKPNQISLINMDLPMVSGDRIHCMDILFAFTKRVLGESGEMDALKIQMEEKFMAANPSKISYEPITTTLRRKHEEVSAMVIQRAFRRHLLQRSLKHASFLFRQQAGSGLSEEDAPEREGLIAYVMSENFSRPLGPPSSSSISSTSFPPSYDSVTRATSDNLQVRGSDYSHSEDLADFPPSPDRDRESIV
Sequence of Cytochrome P450 2D6 (P10635 whole entry): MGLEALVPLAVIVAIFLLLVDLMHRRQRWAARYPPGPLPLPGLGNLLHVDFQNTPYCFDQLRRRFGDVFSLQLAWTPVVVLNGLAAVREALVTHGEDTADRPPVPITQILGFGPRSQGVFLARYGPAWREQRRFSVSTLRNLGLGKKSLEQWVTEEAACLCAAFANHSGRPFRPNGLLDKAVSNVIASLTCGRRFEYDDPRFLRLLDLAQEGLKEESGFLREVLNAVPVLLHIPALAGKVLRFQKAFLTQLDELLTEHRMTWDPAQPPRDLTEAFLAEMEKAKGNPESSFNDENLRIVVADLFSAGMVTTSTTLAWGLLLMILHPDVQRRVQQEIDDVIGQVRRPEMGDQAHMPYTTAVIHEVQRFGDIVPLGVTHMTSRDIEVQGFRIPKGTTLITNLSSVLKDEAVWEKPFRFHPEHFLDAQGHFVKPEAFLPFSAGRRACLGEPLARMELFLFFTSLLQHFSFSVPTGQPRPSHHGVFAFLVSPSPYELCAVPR
Sequence of Voltage-dependent L-type calcium channel subunit alpha-1C (Q13936 whole entry): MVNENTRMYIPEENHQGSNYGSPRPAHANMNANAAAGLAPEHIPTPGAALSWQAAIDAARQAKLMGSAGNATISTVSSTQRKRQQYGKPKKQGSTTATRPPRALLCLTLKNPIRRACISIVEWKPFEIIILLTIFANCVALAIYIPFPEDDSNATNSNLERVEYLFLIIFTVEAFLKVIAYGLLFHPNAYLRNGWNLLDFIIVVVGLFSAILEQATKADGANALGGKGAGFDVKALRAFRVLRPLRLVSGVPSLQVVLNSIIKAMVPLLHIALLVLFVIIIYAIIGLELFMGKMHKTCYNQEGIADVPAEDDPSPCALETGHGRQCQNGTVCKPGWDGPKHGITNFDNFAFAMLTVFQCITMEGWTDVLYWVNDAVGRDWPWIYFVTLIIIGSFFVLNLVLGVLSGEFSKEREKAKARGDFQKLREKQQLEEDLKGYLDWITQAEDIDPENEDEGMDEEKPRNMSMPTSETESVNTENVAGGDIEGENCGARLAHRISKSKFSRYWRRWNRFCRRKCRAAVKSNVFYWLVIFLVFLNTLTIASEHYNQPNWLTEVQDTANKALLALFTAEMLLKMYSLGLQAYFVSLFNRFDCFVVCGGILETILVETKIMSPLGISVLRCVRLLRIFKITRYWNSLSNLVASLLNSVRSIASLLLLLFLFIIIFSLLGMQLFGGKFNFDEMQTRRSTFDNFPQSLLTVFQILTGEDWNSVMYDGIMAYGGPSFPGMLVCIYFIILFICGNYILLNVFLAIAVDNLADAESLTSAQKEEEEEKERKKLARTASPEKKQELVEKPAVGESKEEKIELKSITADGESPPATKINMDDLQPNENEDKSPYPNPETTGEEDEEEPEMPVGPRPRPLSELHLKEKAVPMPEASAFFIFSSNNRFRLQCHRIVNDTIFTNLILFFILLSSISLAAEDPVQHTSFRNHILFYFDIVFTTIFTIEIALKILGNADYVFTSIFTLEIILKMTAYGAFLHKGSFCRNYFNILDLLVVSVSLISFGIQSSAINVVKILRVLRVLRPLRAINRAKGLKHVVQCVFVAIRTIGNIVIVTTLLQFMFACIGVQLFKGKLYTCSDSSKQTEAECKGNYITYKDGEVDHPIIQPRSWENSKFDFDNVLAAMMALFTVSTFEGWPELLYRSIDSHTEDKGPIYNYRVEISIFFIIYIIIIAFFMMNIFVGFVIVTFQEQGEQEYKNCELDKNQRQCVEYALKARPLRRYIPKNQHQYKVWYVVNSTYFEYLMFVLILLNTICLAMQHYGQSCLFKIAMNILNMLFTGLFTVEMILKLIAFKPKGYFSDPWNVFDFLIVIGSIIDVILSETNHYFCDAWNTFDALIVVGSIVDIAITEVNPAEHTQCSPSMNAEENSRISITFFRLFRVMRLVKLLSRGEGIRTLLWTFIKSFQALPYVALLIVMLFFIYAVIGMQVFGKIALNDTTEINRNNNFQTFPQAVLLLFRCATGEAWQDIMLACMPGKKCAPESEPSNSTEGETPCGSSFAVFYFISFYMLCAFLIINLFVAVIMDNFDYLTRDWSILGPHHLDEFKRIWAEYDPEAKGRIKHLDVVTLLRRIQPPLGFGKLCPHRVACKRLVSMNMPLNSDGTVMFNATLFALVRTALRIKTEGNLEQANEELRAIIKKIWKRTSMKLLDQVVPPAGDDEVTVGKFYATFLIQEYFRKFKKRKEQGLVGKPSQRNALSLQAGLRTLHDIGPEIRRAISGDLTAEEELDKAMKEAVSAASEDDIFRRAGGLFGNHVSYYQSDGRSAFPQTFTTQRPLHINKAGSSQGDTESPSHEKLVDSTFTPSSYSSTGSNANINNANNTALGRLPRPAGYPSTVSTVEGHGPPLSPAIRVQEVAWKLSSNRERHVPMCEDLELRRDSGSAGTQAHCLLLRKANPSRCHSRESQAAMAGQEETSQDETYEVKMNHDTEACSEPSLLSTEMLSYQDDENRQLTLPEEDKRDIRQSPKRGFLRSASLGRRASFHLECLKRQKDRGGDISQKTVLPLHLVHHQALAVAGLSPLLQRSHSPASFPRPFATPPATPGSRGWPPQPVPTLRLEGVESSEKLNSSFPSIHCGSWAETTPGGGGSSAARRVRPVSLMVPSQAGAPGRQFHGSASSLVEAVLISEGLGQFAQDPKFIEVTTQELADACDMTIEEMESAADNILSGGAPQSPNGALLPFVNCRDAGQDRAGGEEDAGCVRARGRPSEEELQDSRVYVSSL

| Structure (SMILES) | half-life [1] [h] | Vd [2] [L/kg] | clearance [3] [mL/min/kg] | IC50 (cells) [µM] | solubility [4] [µM] | Vdu [5] [L/kg] | CL [6] [mL/min/kg] | Papp [7] [×10⁻⁶ cm/s] | CL [8] [mL/min/kg] | Vd [9] [L/kg] | Vdu [10] [L/kg] | half-life [11] [h] | clearance [12] [mL/min/kg] | bioavailability [13] [%] | bioavailability [14] [%] | also measured |
| --- | --- | --- | --- | --- | --- | --- | --- | --- | --- | --- | --- | --- | --- | --- | --- | --- |
| Cc1ncc(-c2nc3c(-c4ccc5c(c4)[C@@]4(CCCN4C(=O)C4CC4)C(=O)N5)ncnc3n2C)cn1 | 1.3 | 1.9 | 9.6 | 10 | 130 (≈ 62.5 µg/mL) | 4.6 | 290 | 9 | 27 | 1.4 | 2.7 | 0.6 | 49 | – | – | – |
| CCn1c(-c2cnc(C)nc2)nc2c(-c3ccc4c(c3)[C@](C)(N[C@H]3CCOC3)C(=O)N4)ncnc21 | 1.6 | 3.7 | 32 | – | 180 (≈ 84.7 µg/mL) | 6.5 | 160 | 14 | – | 4.2 | 6.5 | 1.4 | 44 | 14 | – | – |
| CCn1c(-c2cnc(C)nc2)nc2c(-c3ccc4c(c3)[C@](C)(N3CC(C)(OC)C3)C(=O)N4)ncnc21 | 1.8 | 1.9 | – | – | 120 (≈ 58.1 µg/mL) | 6.3 | – | 27 | – | 2.8 | 6.5 | 0.6 | – | 28 | – | – |
| CCn1c(-c2cnc(C)nc2)nc2c(-c3cnc4c(c3)[C@](C)(NC3CCC3)C(=O)N4)ncnc21 | – | 2.1 | – | – | 140 (≈ 63.8 µg/mL) | 3.1 | – | 25 | – | – | – | 3 | – | – | – | – |
| CCn1c(-c2cnc(C)nc2)nc2c(-c3ccc4c(c3)[C@@]3(CCCN3C(=O)C3CC3)C(=O)N4C)ncnc21 | 3 | 0.7 | – | 8.5 | 130 (≈ 66.1 µg/mL) | 3.8 | – | 32 | – | 0.5 | 1 | 1.1 | – | 57 | 99 | – |
| CCn1c(-c2cnc(C)nc2)nc2c(-c3ccc4c(c3)[C@](C)(NCC(C)(F)F)C(=O)N4)ncnc21 | 1.1 | 3.3 | – | – | 120 (≈ 57.4 µg/mL) | 6.9 | – | – | – | 1.7 | 3.9 | 1.9 | – | – | – | – |
| CCn1c(-c2cnc(C)nc2)nc2c(-c3ccc4c(c3)[C@](C)(NCC(C)(C)F)C(=O)N4)ncnc21 | 1.4 | 3 | 39 | – | 130 (≈ 61.7 µg/mL) | 6.3 | 89 | 27 | – | 2.9 | 8.7 | 1.6 | 28 | 58 | 25 | – |
| Cc1ncc(-c2nc3c(-c4ccc5c(c4)[C@@]4(CCCN4C(=O)C4CC4)C(=O)N5C)ncnc3n2C)cn1 | 2 | 1.4 | 6.1 | 9.1 | 140 (≈ 69.2 µg/mL) | 6.1 | 130 | 31 | 14 | 0.8 | 1.5 | 1.4 | 22 | 100 | 82 | IC50 (Cytochrome P450 2C8): > 50 µM; IC50 [15]: > 30 µM; IC50 (Cytochrome P450 2D6): > 50 µM; IC50 (Cytochrome P450 2C9): > 50 µM; IC50 (Cytochrome P450 3A4): > 50 µM; IC50 [16]: > 30 µM; AUC [17]: 490 µM·h; IC50 [18]: > 30 µM |
| CCn1ncc(-c2nc3c(N4CCC(n5c(=O)[nH]c6ncccc65)CC4)ncnc3n2C)c1C | – | – | – | – | – | – | – | – | – | – | – | – | – | – | – | Ratio IC50 (Homo sapiens): 71 |
| CCn1c(-c2cnc(C)nc2)nc2c(-c3cnc4c(c3)[C@](C)(NCC(C)(C)F)C(=O)N4)ncnc21 | 9.3 | 2.4 | 2.5 | – | 115 (≈ 54.7 µg/mL) | 5 | 29 | 24 | 6 | 1.4 | 3.3 | 2.5 | 12 | 61 | 100 | AUC [19]: 390 µM·h |
